Experimental data taken from paper PMC7140380, “Magnolia extract is effective for the chemoprevention of oral cancer through its ability to inhibit mitochondrial respiration at complex I” (Cell Communication and Signaling : CCS, 2020).
Like-named read-outs stand apart in the source and are kept apart here.

Legend:
CAL 27 cells = test: Cell proliferation assay (IncuCyte real-time cell confluence); type: cell-based; settings: Homo sapiens
Experimental: Cells were seeded in 96-well tissue culture plates at 1000–3000 cells per well. Twenty-four hours after seeding, cells were exposed to various concentrations of ME, whereas control cells received fresh medium with an equivalent amount of dimethyl sulfoxide (DMSO) vehicle. Plates were incubated at 37 °C under 5% CO2 and monitored using the IncuCyte Live Cell analysis system (Essen Bioscience, Ann Arbor, MI). […] All assays were performed in triplicate or quadruplicate.

STAT3 = test: Western blot, STAT3 phosphorylation in CAL 27 cells; type: cell-based, human; settings: single agents at concentrations close to their IC50 (HNK 20 μM, MGN 40 μM, MHNK 20 μM)
Experimental: (§1) CAL 27 cells were treated with vehicle control (DMSO), HNK (20 μM), MGN (40 μM), and MHNK (20 μM) for 4 h and then lysed with a lysis buffer containing a proteinase inhibitor cocktail (Cell Signaling Technology, Danvers, MA), sheared 10 times by passage through a 28-gauge needle, and centrifuged at 16,000 g for 30 min; the protein concentration of the supernatant was determined by the Bradford method. Lysates, normalized for equal protein loading, were analyzed by the PathScan RTK Signaling Array (Cell Signaling Technology, Danvers, MA) and the LI-COR Odyssey infrared imaging system (LI-COR Biosciences-Biotechnology, Lincoln, NE).
(§2) Cells were lysed with RIPA buffer containing a proteinase inhibitor cocktail (Fisher Scientific, Pittsburg, PA), sheared 10 times by passage through a 28-gauge needle, and centrifuged at 16,000 g for 30 min; the supernatants were normalized for protein concentration as determined by the Bradford method. Lysates were boiled for 5 min and resolved on 4–12% sodium dodecyl sulfate polyacrylamide gel electrophoresis (SDS-PAGE) gels (Invitrogen, Carlsbad, CA). The blots were probed with the following primary antibodies from Cell Signaling Technology (Danvers, MA): p-STAT3-Tyr705, p-STAT3-Ser727, HKII, P70, and P70S6K. The following antibodies were from Santa Cruz Biotechnology (Dallas, TX): anti-actin, anti-Prx1 and anti-Prx3.

p70S6K = test: Western blot, p70S6K phosphorylation in CAL 27 cells; type: cell-based, human; settings: single agents at concentrations close to their IC50 (HNK 20 μM, MGN 40 μM, MHNK 20 μM)
Experimental: as §1, §2

hexokinase II (HKII) = test: Western blot, HKII levels in CAL 27 cells; type: cell-based, human; settings: single agents at concentrations close to their IC50 (HNK 20 μM, MGN 40 μM, MHNK 20 μM)
Experimental: as §1, §2

4NQO-induced oral cancer = test: 4NQO-induced oral carcinogenesis in C57BL/6 J mice; type: in vivo; settings: 20 mg/kg oral
Experimental: Oral tumors were induced by exposing mice to 4NQO at a dose of 50 μg/mL in drinking water for 16 consecutive weeks. One week following the first dose of 4NQO, mice were given ME or the individual active components in ME via oral administration (five days/week for the next 20 consecutive weeks). Animal body weights and 4NQO-water consumption were monitored weekly. 21 weeks after the start of 4NQO treatment, mice were imaged by MRI. Mice were euthanized and oral tissues were collected to assess total oral tumor volume (sum of V) for each mouse. A portion of normal appearing tissue and oral tumor from each mouse were flash frozen in liquid nitrogen for molecular analysis. Remaining oral tissues were embedded in paraffin for pathologic analysis as previously described and for immunohistochemistry (IHC) analysis of biomarkers. In addition, the oral cavity, esophagus, stomach/forestomach, lung, and other major organs were examined carefully for any signs of abnormality.
Mice were imaged using a 9.4 T MRI (Bruker, Billerica, MA) with a custom birdcage style Quadrature coil (Doty Scientific, Columbia, SC). Mice were anesthetized (2 min) initially in a chamber using a mixture of oxygen (3 L/min) and isofluorane (4%). Once an animal was fully anesthetized, optical lubricant was placed on each eye to prevent drying. […]

[1] = CAL-27, read-out: IC50 as single agents, cell proliferation

SMILES | IC50 (CAL 27 cells; CAL 27 cells, single agents, read-out: IC50 as single agents, cell proliferation) | phosphorylation of STAT3 (p-STAT3 Ser727) (STAT3) | IC50 (CAL 27 cells; [1]) | phosphorylation of p70S6K (p70S6K) | levels of hexokinase II (HKII) (hexokinase II (HKII)) | suppression of 4NQO-induced oral tumors as sole agent, compared with the other single agents (4NQO-induced oral cancer)
C=CCc1ccc(O)c(-c2ccc(O)c(CC=C)c2)c1 [HNK, 5,3′-diallyl-2,4′-dihydroxybiphenyl] | 19 µM | inhibited |  |  |  | 
C=CCc1ccc(O)c(-c2cc(CC=C)ccc2O)c1 [MGN, 5,5′-diallyl-2,2′-dihydroxybiphenyl] |  |  | 49 µM | inhibited |  | 
C=CCc1ccc(O)c(-c2ccc(OC)c(CC=C)c2)c1 [MHNK, 3,5′-diallyl-2′-hydroxy-4-methoxybiphenyl] |  |  | 19 µM |  | decreased | greatest effect
